Each structure is given as a SMILES string. Numbers after ± are expanded uncertainties.

A short description of the data set: refractive index (Na D-line) (dimensionless). The note with it: 293.15 K; 101.33 kPa; Liquid; Standard Abbe refractometry.
As usually defined, the refractive index is the speed of light in vacuum divided by its phase velocity in the sample. In the case of `CC(=O)OC(C)C` [1-methylethyl ethanoate], the refractive index stood at 1.3772 ± 0.0008. With `CC(=O)O` [acetic acid], the refractive index turned out to be 1.3719 ± 0.0007. On to `CCCCCOC(C)=O` [pentyl ethanoate], for which the refractive index is on record as 1.4021 ± 0.0008. In the case of `O` [water], the refractive index was found to be 1.333 ± 0.0008.

(Values after the NIST ThermoML archive (doi:10.1021/je049711t).)
